# Tests used:
# rats [1] = assay: Toxicity of the complex (LD50, mortality within 24 hrs); type: in vivo
# Protocol: Seventy two rats (250+/−2.0 g b.wt) were randomly located into 12 groups of 6 rats each
# Mortality in each group were recorded within 24 hrs. The LD50 was calculated according to Behecens and Karbere (1970)
# [2] = test system: muscle weakness (muscle dystrophies, post stroke weakness); assay: Clinical trials for treatment of weakness of muscles; type: in vivo, human
# Excerpt: The complex used in treatment of muscle weakness for different underlying causes (muscle dystrophies post stroke weakness). […] When the patient reaches the optimum dose, onset of improvement in muscle power is observed within hours of drug intake.
# [3] = test system: stem cells, CD4 and CD8 cells; assay: In vivo stem cell, CD4 and CD8 counts before and during medication; settings: before and at regular intervals of medication
# Excerpt: We hypothesized that the drug may have a role in stimulating the stem cells present in the various organs to differentiate. […] In vivo we measured the stem cell count together with CD8 and CD4 cells before, and at regular intervals of medication.
# rats [4] = assay: Bioavailability studies on rats (liver and kidney functions, blood picture, lipid profile); type: in vivo; settings: for Lipid profile: all groups
# Excerpt: The study on rats included five groups, group 1 control, 2 receiving cu, group.2 pyrazinic, group 3 complex with large dose, & group 5 receiving complex with small dose.
# [5] = Solubility of the complex in solvents; type: physicochemical
# Excerpt: Solubility: the complex is insoluble in non polar solvents, e.g. benzene, carbon tetrachloride, etc., and insoluble in polar solvents: water, methanol, ethanol, acetone, but soluble in these solvents upon heating in inert atmosphere, to prevent oxidation.
# [6] = test system: male infertility (sperm count, motility); assay: Male infertility study, 20 patients; type: in vivo, human
# fatigue = assay: Clinical trials for treatment of fatigue in humans; type: in vivo
# dilated Cardiomyopathy = assay: Clinical trials in cardiomyopathy; type: in vivo, human; settings: clinically and in ECHO cardiographic measurements
# Excerpt: Improvement is shown both clinically and in the ECHO cardiographic measurements.
# [7] = Stability of the solid complex; type: physicochemical
# [8] = complex at large and small dose
compound,measurement,setting,value
[CuCI (pyrazinic acid) 2]. 2H2O [complex],LD50 (intrapperitoneally),rats [1]; intraperitoneal,128 mg/kg
same,LD50 (oral),rats [1]; oral,1104.17 mg/kg
same,Clinical improvement in DMS patients,"[2]; affected by age, weight and degree of dystrophy",dose dependant
same,Onset of improvement in muscle power,"[2]; at optimum dose, after drug intake",within hours
same,CD4/CD8,[3],no disturbance
same,CD4 and CD8 number,[3],increase
same,Stem cell count,[3],significant decrease
same,Lipid profile,rats [4],didn't show significant difference
same,Liver and kidney functions versus control group,rats [4]; [8],no significant difference
same,Lymphocytic count (complete blood picture),"rats [4]; complex at large and small dose, not exceeding the normal range",increase of lymphocytic count
same,Solubility in non polar solvents,"[5]; e.g. benzene, carbon tetrachloride",insoluble
same,Solubility in polar solvents,"[5]; water, methanol, ethanol, acetone",insoluble
same,Solubility in polar solvents upon heating,"[5]; water, methanol, ethanol, acetone, heating in inert atmosphere",soluble
same,Sperm motility,[6]; all cases,significant improvement
same,"Healthy babies, azospermic patients",[6]; among the seven responding azospermic patients,two of them got healthy babies
same,"Healthy babies, oligospermia",[6]; oligospermia cases,four cases got also healthy babies
same,Sperm count in azospermic patients,"[6]; seven out of nine patients, within 6 weeks of treatment",1.5-3 millions/hpf
same,Sperm count in oligospermia,[6]; within 1 month of treatment,doubling of the count
same,"Agonizing fatigue in Parkinsonism, myositis, disseminated sclerosis",fatigue,improves markedly
same,Effect in all types of fatigue,fatigue,"relieved the muscle pain, increased the physical activity and productivity"
same,"Cases improved, dilated cardiomyopathy due to other causes",dilated Cardiomyopathy,80%
same,Improvement of dilated cardiomyopathy secondary to Duchenne muscle dystrophy,dilated Cardiomyopathy,improved all cases
same,Stability,[7],sufficiently stable when well-dried
"O=C(O)c1cnccn1 [pyrazinic, pyrazinic acid, reference compound]",Lipid profile,rats [4],didn't show significant difference
same,Liver and kidney functions versus control group,rats [4]; [8],no significant difference
